Literature values as cited in patent publication US4922021A, “New alkylene diamine derivatives” (BASF Aktiensellschaft, priority 1981, dated 1990).

Assays:
[1] = literature; cited from earlier work
respiratory centre = settings: Bull. Soc. Chim. France 1947, 827; cited from earlier work
[2] = system: sympathic nervious system; settings: Bull. Soc. Chim. France 1940, 603; cited from earlier work

For `CCN(CC)CCNc1c(C)cccc1C` [1-(2,6-dimethylphenyl-amino)-2-diethylamino-ethane], the local anaesthetic effects [1] is listed as “local anaesthetic effects”.
For `CCN(CC)CCNc1cccc(Cl)c1` [1-(3-chlorophenyl-amino)-2-diethylamino-ethane], the “stimulates the respiratory centre” value (respiratory centre) is given as “stimulates the respiratory centre”.
For `CC(CN)Nc1ccccc1` (stereo not drawn) [1-amino-2-phenylamino-propane], the “acting on the sympathetic nervous system” value [2] is listed as “acting on the sympathic nervious system”.
